Legend:
[1] = HA gelation consistency (Method III) with inhibitors, no Hyase; type: physicochemical; conditions: for Consistency: Table 8: HA 1% 2cc + 20 μL inhibitor stock
Experimental: Method III (Viscosity of HA): HA at low concentrations (e.g., 1%) in aqueous solution forms a viscous colloidal hydrogel solution, which yields semi-solid gel particles at room temperature and a solid gel at 4° C.
HA degradation was evaluated using Method III, as described hereinabove.
HA Gelation in the presence of Hyase Inhibitors, without Hyase was studied while using the following Stock solutions:
To each tube containing 2 mL of 1% HA one of the following inhibitors: SCG, Tranilast, and Glutathione (100 μL of each), and NAC (50 μL) was added. […] No Hyase was present.
Using the same protocols as above, HA degradation was tested following incubation of HA (2 ml of a 1% Stock solution) and a Hyase inhibitor (20 μL of a stock solution as described hereinabove), at 37° C., in the presence and absence of Hyase.

[2] = tested on: hyaluronidase Type IV-S, from bovine testes (Hyase); experiment: Dische's assay (Method II) of HA degradation by Hyase with inhibitors; type: biochemical; conditions: for % HA degraded: 20 μL inhibitor stock incubated 2 h with 20 μL Hyase, then HA 200 μL; for % HA degraded / % HA intact (precipitated): room temperature 24 h; for % of inhibition of HA degradation: derived from Table 1; for % HA intact (precipitated): represents % of Hyase inhibition, 20 μL inhibitor, 20 μL Hyase, HA 200 μL
Experimental: Method II (Dische's assay; detection of uronic acid residues): Assays were performed by following the procedures described in Dische Z. [J. Biol. Chem., 1947, 167, p. 189-198] and Dische and Rothschild [Anal Biochem., 1967, 21(1), p. 125-30]. In these assays, molecules containing the uronic acid residues found in the precipitate formed upon CPC additions, are re-solubilized and products formed by -sulfuric acid hydrolysis of these fragments are detected by a spectrophotometric assay employing carbazole chromagen reagent. In addition, small residues degraded off the HA chains that have not precipitated with the addition of CPC, can be detected by the carbazole assay performed on the solution, so as to detect all of the uronic acid content.
Evaluation of HA degradation by this method was generally performed as follows:
20 μL of a NAC stock solution, and 20 μL of the stock solutions of the other inhibitors were used in the assay.
200 μL of the HA stock solution were placed in each tube, for achieving a 1 mg HA per tube.
Twenty (20) μL of hyase and 20 μL of NAC were combined and incubated for 2 hours. Then 200 μL of HA (1 mg) were added to each tube and the mixture was incubated at room temperature for 24 hours. Thereafter, the tubes were heated for 2 minutes in boiling water bath and 8 mL of doubled distilled water were added to the tubes as preparation for the Dische's assay.
As per Dische's Assay, 100 μL of 3N NaCl and 0.5 mL of 10% CPC (cetylpyridinium chloride) were thereafter added to each tube and the mixture was incubated at 37° C. until flocculation-turbidity (resulting from precipitation of HA+CPC) could be observed. The mixture was centrifuged for 10 minutes at 10,000 g at room temperature, and the supernatant was thereafter separated from the obtained pellet.
The pellet was dissolved in 1 ml of CaCl2, and the obtained solution was incubated at 37° C. until complete dissolution of the pellet is obtained. A 2:1 v/v ethanol/ether mixture (8 ml) was thereafter added, and the mixture was intensively stirred (by vortex) and kept at −20° C. overnight. The obtained pellet was collected following a centrifugation for 10 minutes at 10,000 g. Then, distilled water (1 mL) was added to solubilize the pellet, followed by addition of 0.2 ml Carbazole 1%. The mixture was stirred thoroughly, and concentrated sulfuric acid (6 mL) was thereafter added.
The samples were transferred into tight closed tubes, placed for 10 minutes in a boiling water bath, and was thereafter cooled in ice until it reached room temperature.
The pink-violet color developed by the chromogen was measured using a spectrophotometer at 527 nm.
Ditch assay, as described hereinabove (Method II) was performed while using the following Hyase inhibitors:
The experiment was run at room temperature (23° C.). Hyase and Inhibitors were incubated first for 2 hours prior to the addition of HA. Blank tubes included no substrate (HA) and Control tubes included no enzyme, no inhibitor and HA (200 μL). Tubes 5 and 6 contained HA and Hyase with no inhibitor. Standard Solutions with no enzyme and no inhibitor and HA 50 μL and 10 μL were also tested, for calibration. % HA cleaved denotes the weight percent of HA that was degraded. % HA residue denotes the weight percent of non-degraded HA, and represents the % of Hyase inhibition.

[3] = TMA malodor neutralization by myrac aldehyde, evaluated by smelling
Experimental: The experimental system for following the neutralization of an exemplary malodorous compound trimethylamine (TMA) by an exemplary malodor neutralizing agent aldehyde myrac aldehyde, was based on assaying the CHO functional group using the Park-Johnson method [Park, J. T. and Johnson, M. J., J. Biol. Chem., 1949, 181, p. 149]. TMA levels were analyzed using Siemens Multistix 10 SG reagent strips.
Determination of the concentration of myrac aldehyde needed to neutralize TMA malodor was evaluated by smelling 2 ml samples of an aqueous solution containing 2 mM TMA (4 micromole of TMA in 2 ml of water). […]

| % HA degraded [2] [%] | % of inhibition of HA degradation [2] [%] | % HA intact (precipitated) [2] [%] | HA gel consistency ([1]; 2 mL 1% HA + inhibitor stock (100 μL; NAC 50 μL), 37° C. 24 hours) | SMILES | Consistency ([1]; at 4° C.) | Consistency ([1]; at 37° C.) | concentration from which the scent of myrac aldehyde is perceived and masks the smell of TMA ([3]; 2 mM TMA in water) [%] | concentration of myrac aldehyde that can neutralize the smell of TMA ([3]; 2 mM TMA in water) | Perceived scent ([3]; Sample 1: 2 μl aldehyde in 2 ml TMA 2 mM solution, 0.1 percent aldehyde) | Perceived scent ([3]; Sample 2: 10 μl aldehyde in 2 ml TMA 2 mM solution, 0.5 percent aldehyde) | Perceived scent ([3]; Sample 3: 20 μl aldehyde in 2 ml TMA 2 mM solution, 1 percent aldehyde) | Perceived scent ([3]; Sample 4: 40 μl aldehyde in 2 ml TMA 2 mM solution, 2 percent aldehyde) | Perceived scent ([3]; Sample 5: 80 μl aldehyde in 2 ml TMA 2 mM solution, 4 percent aldehyde) | Perceived scent ([3]; Sample 6: 100 μl aldehyde in 2 ml TMA 2 mM solution, 5 percent aldehyde) | Perceived scent ([3]; Sample 7: 200 μl aldehyde in 2 ml TMA 2 mM solution, 10 percent aldehyde) | Perceived scent ([3]; Sample 8: 300 μl aldehyde in 2 ml TMA 2 mM solution, 15 percent aldehyde) | Perceived scent ([3]; Sample 9: 400 μl aldehyde in 2 ml TMA 2 mM solution, 20 percent aldehyde) |
| --- | --- | --- | --- | --- | --- | --- | --- | --- | --- | --- | --- | --- | --- | --- | --- | --- | --- |
| 96.7 | 3.3 | 3.3 |  | O=C(O)c1cc(=O)c2c(OCC(O)COc3cccc4oc(C(=O)O)cc(=O)c34)cccc2o1 [Cromoglycate, sodium Cromoglycate] | Solid (for a solid the results were in the range of 80-100 Pa S and higher) | Semisolid (for a semi-solid in the range of 50-70 Pa S) |  |  |  |  |  |  |  |  |  |  |  |
|  |  |  |  | CC(C)=CCCC1=CCC(C=O)CC1 (stereo not shown) [myrac aldehyde, 4-(4-methylpent-3-enyl)cyclohex-3-ene-1-carbaldehyde] |  |  | ≥ 4 | about 2% | Strong fishy | fishy | Faint fishy | No scent | Faint myrac | Myrac | Myrac | Strong Myrac | Strong myrac |
| 82 | 18 | 18 | viscous liquid | N[C@@H](CCC(=O)N[C@@H](CS)C(=O)NCC(=O)O)C(=O)O [Glutathione, Reduced Glutathione] | Solid (for a solid the results were in the range of 80-100 Pa S and higher) | Viscous liquid (for a viscous liquid in the range of 1-10 Pa S) |  |  |  |  |  |  |  |  |  |  |  |

Source: patent US10004761B2, “Malodor neutralizing composition” (priority 2016, dated 2018)
